Measurements published in patent US20230357261A1, “ARYL HYDROCARBON RECEPTOR LIGANDS AND THEIR ANALOGUES FOR THE PREVENTION AND TREATMENT OF INFLAMMATORY DISORDERS” (The Johns Hopkins University, priority 2020, published 2023).

Columns and labels:
AHR [1] = assay: AHR activation in mouse intestine in vivo (Cyp1a1 expression by qRT-PCR); settings: for Cyp1a1 expression in the intestinal epithelium: fed I3C 25 mg/kg/day or A18 300 mg/kg/day
Protocol: Hits were validated for activation of AHR signaling by oral gavage into neonatal C57/B16 mice (p11), and measuring the expression of the AHR activation reporter Cyp1a1 by qRT-PCR in the intestinal mucosa 24 hours later. The lead compound from these studies is herein labelled “A18”. Additionally, the mice were subjected to hypoxia (5% 02-95% N2) for 10 min in a hypoxia chamber (Billups-Rothenberg) twice daily for 4 days. […] To test the protective effect of breast milk on AHR signaling a NEC, human breast milk (Innovative Research) was supplemented to the formula at the final concentration of 5%. Endotoxemia was induced in neonatal mouse pups (p11) by administering 5 mg/kg lipopolysaccharides (LPS) via intraperitoneal injection, and ileal samples were harvested 6 hours after LPS treatments. […] I3C and A18 were administered to the pregnant mother daily until the offspring were studied further for experimental NEC or endotoxemia as above. […] The mRNA quantification was performed on the Bio-Rad CFX96 Real-Time System (Bio-Rad) using iTaqTM universal SYBR® Green supermix (Bio-Rad) and the primers listed in Table 1. The relative mRNA expression levels were normalized against the expression of the housekeeping gene ribosomal protein lateral stalk subunit P0 (Rplp0). For microRNA isolation, freshly harvested, snap-frozen ileal tissue was subjected to total RNA isolation using the RNeasy plus universal mini kit (Qiagen) and miRNA was quantified using miScript PCR starter kit (Qiagen) following the manufacturer's protocols. The relative miRNA expression levels were normalized against the expression of housekeeping miRNA miR-191.

mouse NEC model = assay: Experimental NEC in newborn mice (Example 1); type: in vivo
TLR4 [2] = assay: TLR4 signaling and Tlr4 expression in newborn mouse ileum in vivo (endotoxemia model, LPS)
Protocol: Endotoxemia was induced in neonatal mouse pups (p11) by administering 5 mg/kg lipopolysaccharides (LPS) via intraperitoneal injection, and ileal samples were harvested 6 hours after LPS treatments. […] I3C and A18 were administered to the pregnant mother daily until the offspring were studied further for experimental NEC or endotoxemia as above. […] The mRNA quantification was performed on the Bio-Rad CFX96 Real-Time System (Bio-Rad) using iTaqTM universal SYBR® Green supermix (Bio-Rad) and the primers listed in Table 1. The relative mRNA expression levels were normalized against the expression of the housekeeping gene ribosomal protein lateral stalk subunit P0 (Rplp0). For microRNA isolation, freshly harvested, snap-frozen ileal tissue was subjected to total RNA isolation using the RNeasy plus universal mini kit (Qiagen) and miRNA was quantified using miScript PCR starter kit (Qiagen) following the manufacturer's protocols. The relative miRNA expression levels were normalized against the expression of housekeeping miRNA miR-191.

AHR [3] = assay: AHR activation in human ileal explant culture (Cyp1a1 qRT-PCR); type: cell-based; settings: 200 μM I3C or 20 μM A18, 15 minutes pre-treatment then 6 hours
From the text: De-identified human ileal samples were collected via waiver of consent from the Office of Human Subjects Research Review Boards at Johns Hopkins University (IRB00094036), during surgery for NEC or at the time of stoma closure. For RNA isolation and qRT-PCR analysis, fresh samples were snapfrozen in liquid nitrogen immediately. For human explant culture, fresh ileum samples from NEC patients or patient undergoing stoma re-anastomosis were washed with sterile phosphate-buffered saline containing gentamycin (5 μg/mL), minced into 2- to 4-mm diameter pieces, and then cultured in Dulbecco's modified Eagle growth medium supplemented with 10% fetal bovine serum, 4 μg/mL human recombinant insulin and 100 μg/mL Primocin. […]
Total RNA was isolated using the RNeasy mini kit (Qiagen) and complementary DNA was synthesized from 0.5 μg RNA using QuantiTect Reverse Transcription kit (Qiagen) following the manufacturer's protocols. The mRNA quantification was performed on the Bio-Rad CFX96 Real-Time System (Bio-Rad) using iTaq™ universal SYBR® Green supermix (Bio-Rad) and the primers listed in Table 1. […] For microRNA isolation, freshly harvested, snap-frozen ileal tissue was subjected to total RNA isolation using the RNeasy plus universal mini kit (Qiagen) and miRNA was quantified using miScript PCR starter kit (Qiagen) following the manufacturer's protocols. […]

TLR4 [4] = assay: TLR4 signaling and expression in human ileal explant culture (LPS); type: cell-based
From the text: De-identified human ileal samples were collected via waiver of consent from the Office of Human Subjects Research Review Boards at Johns Hopkins University (IRB00094036), during surgery for NEC or at the time of stoma closure. For RNA isolation and qRT-PCR analysis, fresh samples were snapfrozen in liquid nitrogen immediately. For human explant culture, fresh ileum samples from NEC patients or patient undergoing stoma re-anastomosis were washed with sterile phosphate-buffered saline containing gentamycin (5 μg/mL), minced into 2- to 4-mm diameter pieces, and then cultured in Dulbecco's modified Eagle growth medium supplemented with 10% fetal bovine serum, 4 μg/mL human recombinant insulin and 100 μg/mL Primocin. Human ilea explant cultures were then pre-treated with 200 μM I3C or 20 μM A18 for 15 minutes, and then with 50 μg/mL LPS for 6 hours, then processed for total RNA isolation followed by qRT-PCR.
(§1) Total RNA was isolated using the RNeasy mini kit (Qiagen) and complementary DNA was synthesized from 0.5 μg RNA using QuantiTect Reverse Transcription kit (Qiagen) following the manufacturer's protocols. The mRNA quantification was performed on the Bio-Rad CFX96 Real-Time System (Bio-Rad) using iTaq™ universal SYBR® Green supermix (Bio-Rad) and the primers listed in Table 1. The relative mRNA expression levels were normalized against the expression of the housekeeping gene ribosomal protein lateral stalk subunit P0 (Rplp0). For microRNA isolation, freshly harvested, snap-frozen ileal tissue was subjected to total RNA isolation using the RNeasy plus universal mini kit (Qiagen) and miRNA was quantified using miScript PCR starter kit (Qiagen) following the manufacturer's protocols. The relative miRNA expression levels were normalized against the expression of housekeeping miRNA miR-191.

AHR [5] = assay: AHR activation in IEC-6 enterocytes (Cyp1a1 expression); type: cell-based, rat; settings: A18, 6 hours
Protocol: The intestinal epithelial cells line IEC-6 (ATCC CRL-1592) was stably transduced with lentiviral particles containing Cignal Lenti XRE Reporter (luc) (Qiagen). Cells were treated serially with individual chemicals contained within the Johns Hopkins Drug Library (JHDL), which contains a series of FDA-approved drugs, Chong et al., 2006, (kindly provided by Dr. Jun O. Liu, Johns Hopkins University) at 10 μM for 24 hours, and the luciferase activity was quantified using the SpectraMax M3 (Molecular Devices).
as §1

[6] = cited from earlier work
[7] = A18 administered during pregnancy
[8] = wild-type newborn mice, A18 300 mg/kg body weight/day for 4 days, oral

In the case of `Cc1c(OCC(F)(F)F)ccnc1C[S+]([O-])c1nc2ccccc2[nH]1` (centres unmarked) [A18, Lansoprazole], the “Cyp1a1 expression in the offspring pup intestine” value (AHR [1]; A18 administered during pregnancy, 300 mg/kg body weight/day) is reported as “induced the expression of Cyp1a1”, the “Cyp1a1 expression in the intestinal epithelium” value (AHR [1]; Ahr^−/− newborn mice) is reported as “not” and the “Cyp1a1 expression in the intestinal epithelium” value (AHR [1]; wild-type newborn (p11) mice) is reported as “induced the expression of Cyp1a1”. For the same compound, the “Tlr4 expression in the neonatal gut (NEC)” value (mouse NEC model; [7]) was “reduced”, the “Tnf-a expression in the neonatal gut (NEC)” value (mouse NEC model; [7]) was “reduced Tnf-a” and the “histology and NEC severity” value (mouse NEC model; [7]) was “improved histology and NEC severity”. The “NEC severity in the offspring” value (mouse NEC model; A18 administered during pregnancy (M-A18, 300 mg/kg body weight/day)) was “significantly reduced NEC severity”, the “prevention and treatment of NEC in mouse models” value (mouse NEC model; summary statement) was “effectively prevented and treated NEC” and the NEC severity (mouse NEC model; wild-type mice, oral to pups during NEC induction: I3C 25 mg/kg/day, A18 300 mg/kg/day, or human breast milk 5% in formula) was “significantly reduced NEC severity”. For the same compound, the NEC severity score (mouse NEC model; [8]) was “improved NEC severity score”, the “expression of I16 (NEC)” value (mouse NEC model; [8]) was “reduced expression of I16” and the “histology of the terminal ileum (NEC)” value (mouse NEC model; [8]) was “improved histology”. The “Tlr4 expression in the intestinal mucosa / newborn ileum” value (TLR4 [2]; wild-type mice, fed I3C or A18) was “reduced Tlr4 expression”, the “TLR4 (LPS)-induced 116 expression in the intestine” value (TLR4 [2]; wild-type newborn mice, fed A18 (300 mg/kg/day) or oral breast milk) was “significantly reduced TLR4-induced 116 expression” and the “Cyp1a1 expression in human intestinal explant cultures” value (AHR [3]) was “significantly induced Cyp1a1 expression”. The “Tlr4 expression in human intestine ex vivo” value (TLR4 [4]; 20 μM A18, LPS 50 μg/mL for 6 hours) was “significantly reduced”, the “LPS-induced Tnf-a expression in human intestinal explant cultures” value (TLR4 [4]; 200 μM I3C or 20 μM A18, LPS 50 μg/mL for 6 hours) was “significantly reduced LPS-induced Tnf-a expression” and the “inflammation in the intestine of human resected at the time of surgery for NEC” value (TLR4 [4]; summary statement) was “dampened inflammation”. For the same compound, the “Cyp1a1 expression in IEC-6 enterocytes” value (AHR [5]) was “induced the expression of Cyp1a1”, the “bound in human plasma” value ([6]; human plasma) was “approximately 97%” and the plasma elimination half-life ([6]; in humans) was “approximately 2 h”. The absorption ([6]; in vivo) was “rapidly absorbed” and the “metabolism by CYP3A4 and CYP2C18” value ([6]; in vivo) was “extensively metabolized”.
